According to patent publication US11219663B2, “Composition containing cyclic dipeptide and sweetening agent” (SUNTORY HOLDINGS LIMITED, priority 2015, dated 2022):
Where a SMILES comes first, the peptide text is derived from it.

Tested on: NCI-H716 cells
Test: Active GLP-1 secretion amount of NCI-H716 cells cultured for one hour with the sample (ELISA)
Type: cell-based, Human
Conditions: for Amount of Active GLP-1 (relative amount to control as 100), average value / Amount of active GLP-1, relative value (control regarded as 100), average value: 1 h
Source text: As cyclic dipeptides: cyclo(glycyl-tyrosine) [Cyclo(Gly-Tyr)] (CGY) and cyclo(leucyl-phenylalanine) [Cyclo(Leu-Phe)] (CLF), and chemical synthesized preparations were used. Poly-L-Lysine 96-well plates were obtained from Becton Dickinson (BD). PBS (+), an antibiotic substance, Dulbecco's Modified Eagle's Medium (DMEM) and glucose used herein were obtained from Nacalai Tesque Inc.; sucralose, acesulfame potassium and aspartame from Wako Pure Chemical Industries Ltd.; active GLP-1 ELISA kit from Merck Millipore, Fetal bovine serum (FBS) from Sigma; and Sitagliptin phosphate from SantaCruz Biotechnology. Human intestinal cell strain, NCI-H716 cells used herein were provided by ATCC.
NCI-H716 cells, which were suspended in DMEM culture medium (containing 10% FBS, 2 mM glutamine, 1% antibiotic substance), were seeded in Poly-L-Lysine 96-well plates in an amount of 100 μL for each so as to contain 0.5×10^5 cells/well and cultured in a CO2 incubator (manufactured by ESPEC CORP.) for 48 hours.
Sweetening agent solutions were prepared each by adding a sweetening agent to PBS (+). In the case of glucose, a concentration was set at 3%, sucralose at 0.6%, acesulfame potassium at 0.3%, and aspartame at 0.3%. A cyclic dipeptide was dissolved in DMSO and then added to each of sweetening agent solutions so as to obtain final concentrations shown in Table 1 and Table 2. Note that, all cell addition solutions were prepared such that DMSO (0.1%) and a 10 μM Sitagliptin phosphate were contained.
After the cells were washed once with PBS (+), a reaction solution was added to the cells. One hour later, the solution added was recovered. Thereafter, the amount of active GLP-1 in the solution recovered was measured by using the ELISA kit. Analysis was carried out using relative values to the amount of active GLP-1 (regarded as 100) in a (sample) group to which neither sweetening agent nor cyclic dipeptide were added.
NCI-H716 cells, which were suspended in DMEM culture medium (containing 10% FBS, 2 mM glutamine, 1% antibiotic substance) were seeded in Poly-L-Lysine 96-well plates in an amount of 100 μL for each so as to contain 0.5×10^5 cells/well and cultured in an CO2 incubator (manufactured by ESPEC CORP.) for 48 hours. After the cells were washed with PBS (+), a PBS (+) solution already containing 10 μM Sitagliptin phosphate was controlled such that the final concentration of stevioside or RebA was 0.01%, and the final concentration of Cyclo(Leu-Phe) was 0.02 μg/mL or 2 μg/mL. The PBS (+) solution (100 μL) was individually added to the NCI-H716 cells. One hour later, the solution added was recovered and the amount of active GLP-1 in the solution was measured by the ELISA kit. Analysis was carried out based on relative values to the amount of active GLP-1 (regarded as 100) in a (sample) group to which neither a steviol glycoside not Cyclo(Leu-Phe) were added
The experiment was carried out in accordance with Example 2. A PBS (+) solution already containing 10 μM Sitagliptin phosphate was controlled such that the final concentration of RebD was 0.01%, and the final concentration of Cyclo(Gly-Tyr) was 0.01 μg/mL or 1 μg/mL. The PBS (+) solution (100 μL) was individually added to the NCI-H716 cells.
NCI-H716 cells, which were suspended in DMEM culture medium (containing 10% FBS, 2 mM glutamine, 1% antibiotic substance), were seeded in Poly-L-Lysine 96-well plates in an amount of 100 μL for each so as to add 0.5×10^5 cells/well and cultured in an CO2 incubator (manufactured by ESPEC CORP.) for 48 hours. After the cells were washed with PBS (+), a PBS (+) solution already containing 10 μM Sitagliptin phosphate was controlled such that the final concentration of stevioside, RebA or RebB was 0.001, 0.01 or 0.1%. The PBS (+) solution (100 μL) controlled such that the final concentration of RebC or RebD was 0.001 or 0.01% was added to the cells.

[1] = Example 4, steviol glycoside alone, 0.001 to 0.1% (RebC, RebD 0.001 or 0.01%)
[2] = Table 5, final concentration 0.001%
[3] = Table 5, final concentration 0.01%
[4] = steviol glycoside alone at a concentration of 0.01%
[5] = Table 3, steviol glycoside 0.01% alone
[6] = Table 4, steviol glycoside 0.01% alone
[7] = Table 5, final concentration 0.1%

| Molecule | GLP-1 secretion-accelerating action (in words) [1] | Amount of Active GLP-1 (relative amount to control as 100), average value [2] | Amount of Active GLP-1 (relative amount to control as 100), average value [3] | GLP-1 secretion-accelerating action (in words) [4] | Amount of Active GLP-1 (relative amount to control as 100), average value [7] | other results |
| --- | --- | --- | --- | --- | --- | --- |
| C=C1C[C@@]23CC[C@H]4[C@@](C)(CCC[C@@]4(C)C(=O)O[C@@H]4O[C@H](CO)[C@@H](O)[C@H](O)[C@H]4O[C@@H]4O[C@H](CO)[C@@H](O)[C@H](O)[C@H]4O)[C@@H]2CC[C@]1(O[C@@H]1O[C@H](CO)[C@@H](O)[C@H](O[C@@H]2O[C@H](CO)[C@@H](O)[C@H](O)[C@H]2O)[C@H]1O[C@@H]1O[C@H](CO)[C@@H](O)[C@H](O)[C@H]1O)C3 [RebD, rebaudioside D] | GLP-1 secretion-accelerating action can be obtained | 63.1 | 170.0 | not accelerated | – | – |
| C=C1C[C@@]23CC[C@H]4[C@@](C)(CCC[C@@]4(C)C(=O)O[C@@H]4O[C@H](CO)[C@@H](O)[C@H](O)[C@H]4O)[C@@H]2CC[C@]1(O[C@@H]1O[C@H](CO)[C@@H](O)[C@H](O)[C@H]1O[C@@H]1O[C@H](CO)[C@@H](O)[C@H](O)[C@H]1O)C3 [Stevioside, stevioside] | GLP-1 secretion-accelerating action can be obtained | 104.9 | 91.3 | not accelerated | 160.9 | Amount of Active GLP-1 (relative amount to control as 100), average value [5]: 62.7; Amount of Active GLP-1 (relative amount to control as 100), average value [6]: 62.7 |
| rebaudioside C [RebC] | GLP-1 secretion-accelerating action was not observed | 52.8 | 55.0 | – | – | – |
| OC[C@H]1O[C@H](O[C@]2(CCl)O[C@H](CCl)[C@@H](O)[C@@H]2O)[C@H](O)[C@@H](O)[C@H]1Cl [Sucralose, sucralose] | – | – | – | – | – | Amount of active GLP-1, relative value (control regarded as 100), average value (Table 1, sucralose 0.6% alone): 206; Amount of active GLP-1, relative value (control regarded as 100), average value (Table 2, sucralose 0.6% alone): 233 |
| cyclo(glycyl-tyrosine) [Cyclo(Gly-Tyr)] | – | – | – | – | – | Amount of Active GLP-1 (relative amount to control as 100), average value (Table 4, Cyclo(Gly-Tyr) 0.01 μg/mL alone): 65.1 |
| C=C1C[C@@]23CC[C@H]4[C@@](C)(CCC[C@@]4(C)C(=O)O[C@@H]4O[C@H](CO)[C@@H](O)[C@H](O)[C@H]4O)[C@@H]2CC[C@]1(O[C@@H]1O[C@H](CO)[C@@H](O)[C@H](O[C@@H]2O[C@H](CO)[C@@H](O)[C@H](O)[C@H]2O)[C@H]1O[C@@H]1O[C@H](CO)[C@@H](O)[C@H](O)[C@H]1O)C3 [RebA, rebaudioside A] | GLP-1 secretion-accelerating action can be obtained | 92.8 | 129.3 | not accelerated | 150.9 | Amount of Active GLP-1 (relative amount to control as 100), average value [5]: 72.6; Amount of Active GLP-1 (relative amount to control as 100), average value [6]: 72.6 |
| cyclo(leucyl-phenylalanine) [Cyclo(Leu-Phe)] | – | – | – | – | – | Amount of Active GLP-1 (relative amount to control as 100), average value (Table 3, Cyclo(Leu-Phe) 0.02 μg/mL alone): 65.1; Amount of Active GLP-1 (relative amount to control as 100), average value (Table 3, Cyclo(Leu-Phe) 2 μg/mL alone): 59.9; Amount of Active GLP-1 (relative amount to control as 100), average value (Table 4, head prints Cyclo(Leu-Phe) 1 μg/mL alone): 59.9 |
| COC(=O)[C@H](Cc1ccccc1)NC(=O)[C@@H](N)CC(=O)O [Aspartame, aspartame] (H-Asp-Phe-OMe) | – | – | – | – | – | Amount of active GLP-1, relative value (control regarded as 100), average value (Table 1, aspartame 0.3% alone): 112; Amount of active GLP-1, relative value (control regarded as 100), average value (Table 2, aspartame 0.3% alone): 129 |
| rebaudioside B [RebB] | GLP-1 secretion-accelerating action can be obtained | 82.0 | 70.5 | – | 151.2 | – |
| CC1=CC(=O)NS(=O)(=O)O1 [Acesulfame K, acesulfame potassium] | – | – | – | – | – | Amount of active GLP-1, relative value (control regarded as 100), average value (Table 1, acesulfame K 0.3% alone): 125; Amount of active GLP-1, relative value (control regarded as 100), average value (Table 2, acesulfame K 0.3% alone): 145 |
